From patent US8278345B2, “Inhibitors of glutaminyl cyclase” (Probiodrug AG, priority 2006, dated 2012)
Where two headings read alike, the source gives them in different places.

What was measured:
hQC = hQC (Homo sapiens, UniProt Q16769); experiment: Inhibitor assay for glutaminyl cyclase activity (fluorometric, H-Gln-βNA / H-Gln-AMC); assay type: biochemical
In short: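 Coupled fluorometric assay at 30 °C with pyroglutamyl aminopeptidase, in Tris/HCl pH 8.0 with EDTA, substrate H-Gln-βNA (0.2 mM; ex/em 320/410 nm) or H-Gln-AMC (ex/em 380/460 nm), initiated by QC. Screening: 4 mM inhibitor, substrate at 1 KM; Ki from progress curves fitted to competitive inhibition.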

[1] = compound from preparative synthesis, purified, read-out: IC50 hQC

hQC, sequence (Q16769 29-361): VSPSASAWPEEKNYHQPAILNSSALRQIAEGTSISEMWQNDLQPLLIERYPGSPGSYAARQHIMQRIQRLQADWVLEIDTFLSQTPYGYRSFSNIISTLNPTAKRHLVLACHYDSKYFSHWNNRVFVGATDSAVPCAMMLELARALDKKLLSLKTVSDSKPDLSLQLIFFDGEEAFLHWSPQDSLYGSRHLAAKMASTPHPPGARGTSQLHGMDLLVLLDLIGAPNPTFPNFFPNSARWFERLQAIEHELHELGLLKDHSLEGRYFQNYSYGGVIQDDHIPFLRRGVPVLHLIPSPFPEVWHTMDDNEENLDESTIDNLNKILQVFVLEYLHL

| SMILES | melting point | IC50 (hQC; [1]) [nM] | IC50 (hQC; read-out: IC50) [nM] | Ki (hQC; compound from preparative synthesis, purified) [nM] |
| --- | --- | --- | --- | --- |
| O=C(C1=C(O)C(=O)N(c2ccc3[nH]cnc3c2)C1c1ccc2nsnc2c1)C1CC1 (stereo not drawn) [Compound 287, 1-(1H-Benzoimidazol-5-yl)-5-benzo[c][1,2,5]thiadiazol-5-yl-4-cyclopropanecarbonyl-3-hydroxy-1,5-dihydro-pyrrol-2-one] | 270 °C (dec.) | 0.7 | 4 | – |
| O=C1C(O)=C(c2ccccc2)C(c2cc(F)cc(F)c2F)N1c1ccc2[nH]cnc2c1 (stereo not drawn) [Compound 445, 1-(1H-Benzoimidazol-5-yl)-3-hydroxy-4-phenyl-5-(2,3,5-trifluoro-phenyl)-1,5-dihydro-pyrrol-2-one] | 150 °C | 2.6 | 4 | – |
| CC(=O)C1=C(O)C(=O)N(c2ccc3[nH]cnc3c2)C1c1ccc2cccc(O)c2n1 (stereo not drawn) [Compound 277, 4-Acetyl-1-(1H-benzoimidazol-5-yl)-3-hydroxy-5-(8-hydroxy-quinolin-2-yl)-1,5-dihydro-pyrrol-2-one] | 174 °C | 5.8 | 4 | – |
| O=C(C1=C(O)C(=O)N(c2ccc3[nH]cnc3c2)C1c1ccc2cccc(O)c2n1)C1CC1 (stereo not drawn) [Compound 446, 1-(1H-Benzoimidazol-5-yl)-4-cyclopropanecarbonyl-3-hydroxy-5-(8-hydroxy-quinolin-2-yl)-1,5-dihydro-pyrrol-2-one] | 155 °C | 1.35 | 4 | – |
| CCCC(=O)C1=C(O)C(=O)N(c2ccc3[nH]cnc3c2)C1c1ccc(-c2ccccn2)cc1 (stereo not drawn) [Compound 387, 1-(1H-Benzoimidazol-5-yl)-4-butyryl-3-hydroxy-5-(4-pyridin-2-yl-phenyl)-1,5-dihydro-pyrrol-2-one] | 294 °C | 1.2 | 4 | – |
| CC(=O)C1=C(O)C(=O)N(c2ccc3[nH]cnc3c2)C1c1cc(Br)ccc1F (stereo not drawn) [Compound 437, 4-Acetyl-1-(1H-benzoimidazol-5-yl)-5-(5-bromo-2-fluoro-phenyl)-3-hydroxy-1,5-dihydro-pyrrol-2-one] | 195 °C | 118 | 4 | – |
| O=C(C1=C(O)C(=O)N(c2ccc3[nH]cnc3c2)C1c1ccc2nonc2c1)C1CC1 (stereo not drawn) [Compound 440, 1-(1H-Benzoimidazol-5-yl)-5-benzo[c][1,2,5]oxadiazol-5-yl-4-cyclopropanecarbonyl-3-hydroxy-1,5-dihydro-pyrrol-2-one] | 170 °C | 11.4 | 4 | – |
| CCCC(=O)C1=C(O)C(=O)N(c2ccc3[nH]cnc3c2)C1c1ccc2nonc2c1 (stereo not drawn) [Compound 421, 1-(1H-Benzoimidazol-5-yl)-5-benzo[c][1,2,5]oxadiazol-5-yl-4-butyryl-3-hydroxy-1,5-dihydro-pyrrol-2-one] | 266 °C | 246 | 40 | – |
| O=C1C(O)=C(c2ccccc2)C(c2cnc3ccccc3c2)N1c1ccc2[nH]cnc2c1 (stereo not drawn) [Compound 420, 1-(1H-Benzoimidazol-5-yl)-3-hydroxy-4-phenyl-5-quinolin-3-yl-1,5-dihydro-pyrrol-2-one] | 108 °C | 32 | 4 | – |
| CC(=O)C1=C(O)C(=O)N(c2ccc3[nH]cnc3c2)C1c1ccc2nonc2c1 (stereo not drawn) [Compound 403, 4-Acetyl-1-(1H-benzoimidazol-5-yl)-5-benzo[c][1,2,5]oxadiazol-5-yl-3-hydroxy-1,5-dihydro-pyrrol-2-one] | 175 °C | 28.3 | 4 | – |
| CC(=O)C1=C(O)C(=O)N(c2ccc3[nH]cnc3c2)C1c1cccc(F)c1F (stereo not drawn) [Compound 350, 4-Acetyl-1-(1H-benzoimidazol-5-yl)-5-(2,3-difluoro-phenyl)-3-hydroxy-1,5-dihydro-pyrrol-2-one] | 135 °C | 30.3 | 4 | – |
| CSCC1=C(O)C(=O)N(c2ccc3[nH]cnc3c2)C1c1cccc(F)c1 (stereo not drawn) [Compound 299, 1-(1H-Benzoimidazol-5-yl)-5-(3-fluoro-phenyl)-3-hydroxy-4-methylsulfanylmethyl-1,5-dihydro-pyrrol-2-one] | – | – | 5260 | – |
| O=C1C(O)=C(c2ccc(O)cc2)C(C(O)CO)N1CCCn1ccnc1 (stereo not drawn) [Compound 152, 5-(1,2-Dihydroxy-ethyl)-3-hydroxy-4-(4-hydroxy-phenyl)-1-(3-imidazol-1-yl-propyl)-1,5-dihydro-pyrrol-2-one] | – | – | 400 | – |
| CCC1=C(O)C(=O)N(c2ccc3[nH]cnc3c2)C1c1cc(C)ccc1O (stereo not drawn) [Compound 282, 1-(1H-Benzoimidazol-5-yl)-4-ethyl-3-hydroxy-5-(2-hydroxy-5-methyl-phenyl)-1,5-dihydro-pyrrol-2-one] | – | – | 670 | – |
| O=C1C(O)=C(c2ccccc2)C(c2ccccc2)N1CCCn1ccnc1 (stereo not drawn) [Compound 92, 3-Hydroxy-1-(3-imidazol-1-yl-propyl)-4,5-diphenyl-1,5-dihydro-pyrrol-2-one] | – | – | 3100 | – |
| O=C1C(O)=C(c2ccc(O)cc2)C(c2ccc(O)cc2)N1CCCn1ccnc1 (stereo not drawn) [Compound 181, 3-Hydroxy-4,5-bis-(4-hydroxy-phenyl)-1-(3-imidazol-1-yl-propyl)-1,5-dihydro-pyrrol-2-one] | – | – | 40 | – |
| Cc1ccc(C2C(c3ccccc3)=C(O)C(=O)N2CCCn2ccnc2)cc1 (stereo not drawn) [Compound 77, 3-Hydroxy-1-(3-imidazol-1-yl-propyl)-4-phenyl-5-p-tolyl-1,5-dihydro-pyrrol-2-one] | – | 1910 | 40 | – |

| SMILES | melting point | IC50 (hQC; [1]) [nM] | IC50 (hQC; read-out: IC50) [nM] | Ki (hQC; compound from preparative synthesis, purified) [nM] |
| --- | --- | --- | --- | --- |
| CCC1=C(O)C(=O)N(CCCn2ccnc2)C1C(O)CO (stereo not drawn) [Compound 225, 5-(1,2-Dihydroxy-ethyl)-4-ethyl-3-hydroxy-1-(3-imidazol-1-yl-propyl)-1,5-dihydro-pyrrol-2-one] | – | – | 40 | – |
| O=C1C(O)=C(c2ccc(O)cc2)C(c2ccccn2)N1CCCn1ccnc1 (stereo not drawn) [Compound 171, 3-Hydroxy-4-(4-hydroxy-phenyl)-1-(3-imidazol-1-yl-propyl)-5-pyridin-2-yl-1,5-dihydro-pyrrol-2-one] | – | – | 400 | – |
| CC(C)C1=C(O)C(=O)N(CCCn2ccnc2)C1c1cccs1 (stereo not drawn) [Compound 71, 3-Hydroxy-1-(3-imidazol-1-yl-propyl)-4-isopropyl-5-thiophen-2-yl-1,5-dihydro-pyrrol-2-one] | – | – | 4000 | – |
| O=C(O)c1ccc(C2C(C(=O)C3CC3)=C(O)C(=O)N2c2ccc3[nH]cnc3c2)o1 (stereo not drawn) [Compound 308, 5-[1-(1H-Benzoimidazol-5-yl)-3-cyclopropanecarbonyl-4-hydroxy-5-oxo-2,5-dihydro-1H-pyrrol-2-yl]-furan-2-carboxylic acid] | – | – | 400 | – |
| Cc1ccc(C2C(c3c[nH]c4ccccc34)=C(O)C(=O)N2CCCn2ccnc2)o1 (stereo not drawn) [Compound 119, 3-Hydroxy-1-(3-imidazol-1-yl-propyl)-4-(1H-indol-3-yl)-5-(5-methyl-furan-2-yl)-1,5-dihydro-pyrrol-2-one] | – | – | 400 | – |
| Cc1ccc(O)c(C2C(c3ccc(O)cc3)=C(O)C(=O)N2c2ccc3[nH]cnc3c2)c1 (stereo not drawn) [Compound 284, 1-(1H-Benzoimidazol-5-yl)-3-hydroxy-5-(2-hydroxy-5-methyl-phenyl)-4-(4-hydroxy-phenyl)-1,5-dihydro-pyrrol-2-one] | – | – | 7150 | – |
| CC(=O)C1=C(O)C(=O)N(c2ccc3[nH]cnc3c2)C1C1=CCCCC1 (stereo not drawn) [Compound 312, 4-Acetyl-1-(1H-benzoimidazol-5-yl)-5-cyclohex-1-enyl-3-hydroxy-1,5-dihydro-pyrrol-2-one] | – | – | 1840 | – |
| O=C1C(O)=C(c2ccc(O)cc2)C(C2CC2)N1CCCn1ccnc1 (stereo not drawn) [Compound 175, 5-Cyclopropyl-3-hydroxy-4-(4-hydroxy-phenyl)-1-(3-imidazol-1-yl-propyl)-1,5-dihydro-pyrrol-2-one] | – | – | 40 | – |
| O=C(O)CC1=C(O)C(=O)N(c2ccc3[nH]cnc3c2)C1c1cccc2cccnc12 (stereo not drawn) [Compound 354, [1-(1H-Benzoimidazol-5-yl)-4-hydroxy-5-oxo-2-quinolin-8-yl-2,5-dihydro-1H-pyrrol-3-yl]-acetic acid] | – | – | 8770 | – |
| CC1=C(O)C(=O)N(CCCn2ccnc2)C1C1CCC=CO1 (stereo not drawn) [Compound 35, 5-(3,4-Dihydro-2H-pyran-2-yl)-3-hydroxy-1-(3-imidazol-1-yl-propyl)-4-methyl-1,5-dihydro-pyrrol-2-one] | – | – | 2200 | – |
| Cc1cc(C2C(C(=O)C3CC3)=C(O)C(=O)N2c2ccc3[nH]cnc3c2)cc(C)c1O (stereo not drawn) [Compound 342, 1-(1H-Benzoimidazol-5-yl)-4-cyclopropanecarbonyl-3-hydroxy-5-(4-hydroxy-3,5-dimethyl-phenyl)-1,5-dihydro-pyrrol-2-one] | – | – | 310 | – |
| CC1=C(O)C(=O)N(c2ccc3nc[nH]c3c2)C1c1cccc(F)c1F (stereo not drawn) [Compound 467, 1-(1H-benzo[d]imidazol-6-yl)-5-(2,3-difluorophenyl)-3-hydroxy-4-methyl-1H-pyrrol-2(5H)-one] | – | – | 52.6 | 11.6 |
| CC(C)C1=C(O)C(=O)N(CCCn2ccnc2)C1C1=CCCCC1 (stereo not drawn) [Compound 67, 5-Cyclohex-1-enyl-3-hydroxy-1-(3-imidazol-1-yl-propyl)-4-isopropyl-1,5-dihydro-pyrrol-2-one] | – | – | 2200 | – |
| O=C1C(O)=C(c2ccc(O)cc2)C(c2ccc3cccc(O)c3n2)N1c1ccc2[nH]cnc2c1 (stereo not drawn) [Compound 391, 1-(1H-Benzoimidazol-5-yl)-3-hydroxy-4-(4-hydroxy-phenyl)-5-(8-hydroxy-quinolin-2-yl)-1,5-dihydro-pyrrol-2-one] | – | – | 40 | – |
| CCCCCC1=C(O)C(=O)N(CCCn2ccnc2)C1c1ccc(CO)o1 (stereo not drawn) [Compound 198, 3-Hydroxy-5-(5-hydroxymethyl-furan-2-yl)-1-(3-imidazol-1-yl-propyl)-4-pentyl-1,5-dihydro-pyrrol-2-one] | – | – | 40 | – |
| CCC/C=C/C1C(c2ccc(O)cc2)=C(O)C(=O)N1CCCn1ccnc1 (stereo not drawn) [Compound 149, 3-Hydroxy-4-(4-hydroxy-phenyl)-1-(3-imidazol-1-yl-propyl)-5-(pent-1-enyl)-1,5-dihydro-pyrrol-2-one] | – | – | 1300 | – |
